# System: A549 cells and A549 xenografts
# Assay: Immunoblot analysis of EGFR downstream signaling (ERK, AKT) in A549 cells and A549 xenografts
# Type: cell-based
# Conditions: in vitro and in vivo samples
# Method: The treated cells or tumor tissues were lysed using an RIPA lysis buffer (Sigma) unsupplemented or supplemented with a phosphatase inhibitor+a protease inhibitor (Thermo Scientific). A total of 50 μg of protein was analyzed by immunoblotting via incubation at 4° C. overnight with Sprimary antibody specific to KRAS (Santa Cruz, 1:200 dilution), p-ERK (cell signal, 1:1000 dilution), ERK (Cell Signaling, 1:1000 dilution), and β-Actin (Abcam, 1:10000 dilution) and then incubation with secondary antibodies conjugated with horseradish peroxidase for 2 hours at room temperature. The proteins were visualized by chemicalluminescence using a Western ECL substrate (Bio-Rad) and luminescence images were analyzed by a LAS-3000 (Fujifilm). Band intensities were quantified using ImageJ software.
# FIG. 6D illustrates immunoblot analysis of EGFR downstream signaling pathways in A549 cells and A549 xenografts.
smiles,measurement,value
Cn1cnc2c(F)c(Nc3ccc(Br)cc3Cl)c(C(=O)NOCCO)cc21 [AZD6244],activation (phosphorylation) of ERK,inhibited only activation of ERK
